{
  "source": "patent US20240114940A1",
  "about": "“SACCHARIDE COMPOSITIONS HAVING SUCROSE-LIKE CHARACTERISTICS AND RELATED METHODS” (priority 2021, published 2024)",
  "type_in_all_cases": "physicochemical",
  "key": {"[1]": {"assay": "Heating of saccharide solutions in an open system (observation, ion-exchange chromatography)", "procedure": "The following steps were performed to observe the impact of heat and pH on xylo-oligosaccharides: • 1. Four saccharide solutions comprising xylo-oligosaccharides of primarily degree of polymerization (DP) 2-6 (XOS) were created by dissolving saccharides in water, some solutions including an acidity regulator. The four solutions were: • a. XOS in water, pH 7 • b. XOS in water, pH 7 • c. XOS in water and lemon juice, pH 2 • d. XOS in water and baking soda, pH 9 • 2. The four solutions were heated, and the resulting products analyzed. For the four solutions: • a. XOS in water at pH 7 was heated to 110° C. (FIG. 1A). The solution was yellow when dissolved in water, and sticky, dissolving around 60° C. The solution formed soft, sticky threads at 110° C. […] XOS in water at pH 7 was heated to 177° C. (FIG. 1B). The solution got very dark at 177° C. and smelled burnt. The solution began darkening in color around 120° C., with the darkest color formation beginning at 150° C. The solution formed a hard crack consistency at 177° C. When water was added, the hard crack consistency re-dissolved slowly. • c. XOS in water and lemon juice at pH 2 was heated to 177° C. (FIG. 1C). This solution behaved the same as solution (b). • d. […]\nThe following steps were performed to observe the impact of heat and pH on cello-oligosaccharide: • 1. […] The four solutions were heated, and the resulting products analyzed. […]"}, "[2]": {"assay": "pH and absorbance at 420 nm of closed-system heated solutions"}, "[3]": {"assay": "Breakdown products by GCMS after Maillard reaction in the presence of Histidine", "conditions": "160° C.", "procedure": "Controls were prepared addition of 1 mL of pH 7 buffer to the amino acids. The samples were rapidly heated to 160° C. and held at this temperature for 10 min. Samples were rapidly cooled afterwards, and absorbance at 500 nm was measured for each reaction mixture. Volatiles were analysed using gas chromatography mass spectrometry (GCMS) analysis. An Agilent Technologies 5975B Inert XL MSD gas chromatography, single quadruple mass spectrometer was used for analysis of volatiles. Samples were added to separate GCMS headspace vials and weighed. 0.03 g of 0.01% 3-heptanone in water was added and the vial was sealed for GCMS solid phase micro extraction (SPME) analysis. Samples were analysed in a randomized order. Samples were incubated and agitated at 250 RPM, at 60° C. for 15 min prior to SPME analysis of volatiles. The SPME fibre (50/30 DVB/CAR/PDMS, 23 Ga) extracted for 10 min, then thermally desorbed at 250° C. for 5 min. A 30 m×0.25 mm×0.25 μm HP-5MS column was used (Phenomenex, UK). Oven temperature settings: 31° C.-5 min, 5° C./min to 150° C., 30° C./min to 240° C. Inlet settings: 250° C., pressure 10.4 psi, flow 11.2 mL/min, split ratio 7:1. MS operated in full scan mode from 40 to 400 m/z with a scan time of 0.2s. The peak area of the aroma compounds was compared to the peak of the internal standard 3-heptanone and corrected for the weight of the sample.\nThe concentration of the different classes of Maillard reaction breakdown products is presented in Tables 9B-E. The same data as Tables 9B-E is also presented in FIG. 27. Concentrations are in parts per billion of the difference non-enzymatic breakdown products for the different compositions at 160° C. analysed by GCMS."}},
  "data": [
    {"molecule": "OC[C@H]1O[C@@](CO)(O[C@H]2O[C@H](CO)[C@@H](O)[C@H](O)[C@H]2O)[C@@H](O)[C@@H]1O", "note": "[Sucrose]", "values": [
      {"measurement": "degradation after heating", "setting": "[1]; 177° C. at pH 7 and pH 4, open system", "value": "degrades"},
      {"measurement": "degradation after heating", "setting": "[1]; 177° C. at pH 10, open system", "value": "does not degrade"},
      {"measurement": "A420 after heating to 177° C.", "setting": "[2]; samples labelled as pH 3", "value": 0.089},
      {"measurement": "A420 before heating", "setting": "[2]; samples labelled as pH 3", "value": 0.082},
      {"measurement": "pH after heating to 177° C.", "setting": "[2]; samples labelled as pH 3", "value": 3.08},
      {"measurement": "pH before heating", "setting": "[2]; samples labelled as pH 3", "value": 3},
      {"measurement": "A420 after heating to 110° C.", "setting": "[2]; samples labelled as pH 7", "value": 0.086},
      {"measurement": "A420 before heating", "setting": "[2]; samples labelled as pH 7", "value": 0.115},
      {"measurement": "pH after heating to 110° C.", "setting": "[2]; samples labelled as pH 7", "value": 6.88},
      {"measurement": "pH after heating to 177° C.", "setting": "[2]; samples labelled as pH 7", "value": 6.84},
      {"measurement": "pH before heating", "setting": "[2]; samples labelled as pH 7", "value": 6.78},
      {"measurement": "A420 before heating", "setting": "[2]; samples labelled as pH 9", "value": 0.087},
      {"measurement": "pH after heating 177° C.", "setting": "[2]; samples labelled as pH 9", "value": 8.14},
      {"measurement": "pH before heating", "setting": "[2]; samples labelled as pH 9", "value": 8.76},
      {"measurement": "2-Butanone concentration", "setting": "[3]; Carbonyls/ketones", "value": 1.44, "unit": "ppb"},
      {"measurement": "2-Propanone, 1-hydroxy- concentration", "setting": "[3]; Carbonyls/ketones", "value": 14.57, "unit": "ppb"},
      {"measurement": "Diacetyl (2,3-Butanedione) concentration", "setting": "[3]; Carbonyls/ketones", "value": 1.62, "unit": "ppb"},
      {"measurement": "Furan, 2-methyl- concentration", "setting": "[3]; Furans", "value": 0, "unit": "ppb"},
      {"measurement": "Furfural concentration", "setting": "[3]; Furans", "value": 0.03, "unit": "ppb"},
      {"measurement": "Pyrazine, 2,5-diethyl- concentration", "setting": "[3]; Pyrazines", "value": 0.48, "unit": "ppb"},
      {"measurement": "Pyrazine, 2,5-dimethyl- concentration", "setting": "[3]; Pyrazines", "value": 175.23, "unit": "ppb"},
      {"measurement": "Pyrazine, 2-ethyl-5-methyl- concentration", "setting": "[3]; Pyrazines", "value": 34.95, "unit": "ppb"},
      {"measurement": "Pyrazine, ethyl- concentration", "setting": "[3]; Pyrazines", "value": 0.14, "unit": "ppb"},
      {"measurement": "Pyrazine, methyl- concentration", "setting": "[3]; Pyrazines", "value": 0, "unit": "ppb"}
    ]}
  ]
}
